According to paper PMC11271178, “Effect of Added Salt on the RAFT Polymerization of 2-Hydroxyethyl Methacrylate in Aqueous Media” (Macromolecules, 2024):

Tests used:
[1] = cited from earlier work
[2] = Aqueous solubility of HEMA monomer vs added NaCl at 70 °C (gravimetric titration, visual end point); type: physicochemical
Description: Deionized water (2.0 g) was added to a pre-weighed vial equipped with a magnetic stir bar. This vial was placed in an oil bath set at 70 °C and allowed to equilibrate for 20 min. HEMA was added to a second pre-weighed vial and then added dropwise to the first vial at 70 °C. After the addition of each drop of HEMA, the aqueous HEMA mixture was stirred at 70 °C for 1 min. Visual inspection was used to judge the point at which the HEMA monomer droplets were no longer fully dissolved. […] This experiment was repeated with the deionized water being replaced with a series of aqueous salt solutions (up to 3 M NaCl).
However, its aqueous solubility strongly depends on the presence of salt. For example, the digital photograph shown in Figure 1 (blue frame) clearly illustrates the transition from fully soluble HEMA in 0–0.6 M NaCl to (partially) immiscible HEMA in the presence of 1.5 M NaCl. This change in physical appearance is used as the “end point” for a series of gravimetric titrations to determine the aqueous solubility of HEMA in various salt solutions at 70 °C. For example, HEMA solubility is reduced from 1305 g dm^–3 in 0.75 M NaCl to just 93 g dm^–3 in 3 M NaCl (see Figure 1). In principle, this should be sufficient for the mode of polymerization to switch from an aqueous dispersion polymerization to an aqueous emulsion polymerization. Moreover, added salt was also expected to lower the critical DP at which PHEMA chains become water-insoluble. Combining the salt-tunable aqueous solubility of HEMA with a suitable salt-tolerant precursor such as PMPC should facilitate a systematic study of the effect of added salt on the polymerization kinetics and copolymer morphology.

Compound: C=C(C)C(=O)OCC(F)(F)F [2,2,2-trifluoroethyl methacrylate]
- aqueous solubility of monomer [1]: ≤ 1 g dm^–3

Compound: C=C(C)C(=O)OCc1ccccc1 [benzyl methacrylate]
- aqueous solubility of monomer [1]: ≤ 1 g dm^–3

Compound: C=Cc1ccccc1 [styrene]
- aqueous solubility of monomer [1]: ≤ 1 g dm^–3

Compound: C=C(C)C(=O)OCCO [HEMA, 2-hydroxyethyl methacrylate]
- aqueous solubility of HEMA ([2]; 0.75 M NaCl, 70 °C): 1305 g dm^–3
- aqueous solubility of HEMA ([2]; 3 M NaCl, 70 °C): 93 g dm^–3
- solubility at 1 min ([2]; aqueous 1.5 M NaCl solution, water, 1.5 M NaCl, 70 °C, homogeneous at lower, emulsion at higher concentration, read-out: aqueous solubility of HEMA (homogeneous mixture vs emulsion)): ≥ 171 mg/mL
- miscibility of HEMA with water ([2]; no added salt): fully miscible with water in all proportions
- miscibility of HEMA with water ([2]; up to 0.6 M NaCl, 70 °C): water-miscible in all proportions
